{
  "source": "patent US6737383B1",
  "about": "“Herbicidal oxadiazolidines” (priority 1999, dated 2004)",
  "key": {"crabgrass": {"system": "crabgrass", "test": "Test B pre/postemergence crabgrass", "type": "in vivo, Digitaria sanguinalis", "conditions": "Preemergence", "method_in_brief": "(§1)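 Test chemicals in a non-phytotoxic solvent mixture with surfactant were sprayed preemergence onto planted seeds and postemergence onto plants 2 to 18 cm tall (1- to 4-leaf stage). After twelve to sixteen days in a greenhouse, injury was visually rated against untreated controls from 0 (no effect) to 10 (complete control).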"}, "bedstraw": {"system": "bedstraw", "test": "Test B pre/postemergence bedstraw", "type": "in vivo, Galium aparine", "conditions": "Preemergence", "method_in_brief": "as §1"}, "soybean": {"system": "soybean", "test": "Test B pre/postemergence soybean", "type": "in vivo, Glycine max", "conditions": "Preemergence, scale of 0 to 10 where 0 is no effect and 10 is complete control", "method_in_brief": "as §1"}, "wheat": {"system": "wheat", "test": "Test B pre/postemergence wheat", "type": "in vivo, Triticum aestivum", "conditions": "Preemergence, scale of 0 to 10 where 0 is no effect and 10 is complete control", "method_in_brief": "as §1"}, "rape": {"system": "rape", "test": "Test B pre/postemergence rape", "type": "in vivo, Brassica napus", "conditions": "Preemergence, scale of 0 to 10 where 0 is no effect and 10 is complete control", "method_in_brief": "as §1"}, "rice": {"system": "rice", "test": "Test B flood test rice", "type": "in vivo, Oryza sativa", "method_in_brief": "(§2)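 Flood test on plants grown to the 2-leaf stage; treated plants kept in greenhouse twelve to sixteen days, then visually rated against controls on a 0 (no effect) to 10 (complete control) scale.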"}, "wild oat": {"system": "wild oat", "test": "Test B pre/postemergence wild oat", "type": "in vivo, Avena fatua", "conditions": "Preemergence, Rate 125 g/ha; scale of 0 to 10 where 0 is no effect and 10 is complete control", "method_in_brief": "as §1"}, "surinam grass": {"system": "surinam grass", "test": "Test B pre/postemergence surinam grass", "type": "in vivo, Brachiaria decumbens", "conditions": "Preemergence", "method_in_brief": "as §1"}, "bamyardgrass": {"system": "bamyardgrass", "test": "Test B flood test barnyardgrass", "type": "in vivo, Echinochloa crus-galli", "method_in_brief": "as §2"}, "purple nutsedge": {"system": "purple nutsedge", "test": "Test B pre/postemergence purple nutsedge", "type": "in vivo, Cyperus rotundus", "conditions": "Preemergence, scale of 0 to 10 where 0 is no effect and 10 is complete control", "method_in_brief": "as §1"}, "velvetleaf": {"system": "velvetleaf", "test": "Test B pre/postemergence velvetleaf", "type": "in vivo, Abutilon theophrasti", "conditions": "Preemergence, scale of 0 to 10 where 0 is no effect and 10 is complete control", "method_in_brief": "as §1"}, "corn": {"system": "corn", "test": "Test B pre/postemergence corn", "type": "in vivo, Zea mays", "conditions": "Preemergence", "method_in_brief": "as §1"}, "smallflower flatsedge": {"system": "smallflower flatsedge", "test": "Test B flood test smallflower flatsedge", "type": "in vivo, Cyperus difformis", "method_in_brief": "as §2"}, "giant foxtail": {"system": "giant foxtail", "test": "Test B pre/postemergence giant foxtail", "type": "in vivo, Setaria faberii", "conditions": "Preemergence, scale of 0 to 10 where 0 is no effect and 10 is complete control", "method_in_brief": "as §1"}, "sugar beet": {"system": "sugar beet", "test": "Test B pre/postemergence sugar beet", "type": "in vivo, Beta vulgaris", "conditions": "Preemergence, scale of 0 to 10 where 0 is no effect and 10 is complete control", "method_in_brief": "as §1"}, "duck salad": {"system": "duck salad", "test": "Test B flood test duck salad", "type": "in vivo, Heteranthera limosa", "method_in_brief": "as §2"}, "cocklebur": {"system": "cocklebur", "test": "Test B pre/postemergence cocklebur", "type": "in vivo, Xanthium strumarium", "conditions": "Preemergence", "method_in_brief": "as §1"}, "morningglory": {"system": "morningglory", "test": "Test B pre/postemergence morningglory", "type": "in vivo, Ipomoea hederacea", "conditions": "Preemergence, scale of 0 to 10 where 0 is no effect and 10 is complete control", "method_in_brief": "as §1"}, "blackgrass": {"system": "blackgrass", "test": "Test B pre/postemergence blackgrass", "type": "in vivo, Alopecurus myosuroides", "conditions": "Preemergence", "method_in_brief": "as §1"}, "pigweed": {"system": "pigweed", "test": "Test B pre/postemergence pigweed", "type": "in vivo, Amaranthus retroflexus", "conditions": "Preemergence, scale of 0 to 10 where 0 is no effect and 10 is complete control", "method_in_brief": "as §1"}, "[1]": {"conditions": "Rate 62 g/ha, scale of 0 to 10 where 0 is no effect and 10 is complete control"}, "[2]": {"conditions": "Rate 125 g/ha, scale of 0 to 10 where 0 is no effect and 10 is complete control"}, "[3]": {"conditions": "Rate 250 g/ha, scale 0 to 10 (0 no effect, 10 complete control)"}, "[4]": {"conditions": "Rate 500 g/ha, scale of 0 to 10 where 0 is no effect and 10 is complete control"}, "[5]": {"conditions": "Rate 62 g/ha, flood test species, Pre-emergence, visual evaluation after twelve to sixteen days"}, "[6]": {"conditions": "Rate 125 g/ha, under heading Pre-emergence, flood test species, visual evaluation after twelve to sixteen days"}, "[7]": {"conditions": "Rate 250 g/ha, Pre-emergence (flood test species), scale 0 to 10, 0 is no effect, 10 is complete control"}, "[8]": {"conditions": "Rate 500 g/ha, Pre-emergence section of Table B, 0 to 10 scale (0 no effect, 10 complete control)"}},
  "data": [
    {"smiles": "CC(C)N(C(=O)n1oc(=O)n(C(C)C2CCC2)c1=O)c1ccc(F)cc1F", "note": "(stereo not drawn) [Compound 702]", "values": [
      {"measurement": "Crabgrass plant response rating", "setting": "crabgrass; [1]", "value": 9},
      {"measurement": "Plant response rating, Crabgrass", "setting": "crabgrass; [2]", "value": 10},
      {"measurement": "Plant response rating, Crabgrass", "setting": "crabgrass; [3]", "value": 10},
      {"measurement": "Bedstraw plant response rating", "setting": "bedstraw; [1]", "value": 0},
      {"measurement": "Plant response rating, Bedstraw", "setting": "bedstraw; [2]", "value": 0},
      {"measurement": "Plant response rating, Bedstraw", "setting": "bedstraw; [3]", "value": 0},
      {"measurement": "Plant response rating, Bedstraw", "setting": "bedstraw; [4]", "value": 0},
      {"measurement": "Soybean plant response rating", "setting": "soybean; Rate 62 g/ha", "value": 0},
      {"measurement": "Plant response rating, Soybean", "setting": "soybean; Rate 125 g/ha", "value": 0},
      {"measurement": "Wheat plant response rating", "setting": "wheat; Rate 62 g/ha", "value": 0},
      {"measurement": "Plant response rating, Wheat", "setting": "wheat; Rate 125 g/ha", "value": 0},
      {"measurement": "Rape plant response rating", "setting": "rape; Rate 62 g/ha", "value": 0},
      {"measurement": "Plant response rating, Rape", "setting": "rape; Rate 125 g/ha", "value": 0},
      {"measurement": "Plant response rating, Rice (0 to 10 scale, 0 is no effect, 10 is complete control)", "setting": "rice; [5]", "value": 0},
      {"measurement": "Rice plant response rating (0 to 10 scale, 0 is no effect, 10 is complete control)", "setting": "rice; [6]", "value": 0},
      {"measurement": "Rice plant response rating", "setting": "rice; [7]", "value": 0},
      {"measurement": "Rice plant response rating", "setting": "rice; [8]", "value": 0},
      {"measurement": "Plant response rating, Wild oats", "setting": "wild oat", "value": 0},
      {"measurement": "B. signalgrass plant response rating", "setting": "surinam grass; [1]", "value": 0},
      {"measurement": "Plant response rating, B. signalgrass", "setting": "surinam grass; [2]", "value": 2},
      {"measurement": "Plant response rating, B. signalgrass", "setting": "surinam grass; [3]", "value": 2},
      {"measurement": "Plant response rating, B. signalgrass", "setting": "surinam grass; [4]", "value": 8},
      {"measurement": "Plant response rating, Barnyardgrass (0 to 10 scale, 0 is no effect, 10 is complete control)", "setting": "bamyardgrass; [5]", "value": 0},
      {"measurement": "Barnyardgrass plant response rating (0 to 10 scale, 0 is no effect, 10 is complete control)", "setting": "bamyardgrass; [6]", "value": 0},
      {"measurement": "Barnyardgrass plant response rating", "setting": "bamyardgrass; [7]", "value": 0},
      {"measurement": "Barnyardgrass plant response rating", "setting": "bamyardgrass; [8]", "value": 0},
      {"measurement": "Nutsedge plant response rating", "setting": "purple nutsedge; Rate 62 g/ha", "value": 0},
      {"measurement": "Plant response rating, Nutsedge", "setting": "purple nutsedge; Rate 125 g/ha", "value": 0},
      {"measurement": "Velvetleaf plant response rating", "setting": "velvetleaf; Rate 62 g/ha", "value": 0},
      {"measurement": "Plant response rating, Velvetleaf", "setting": "velvetleaf; Rate 125 g/ha", "value": 0},
      {"measurement": "Corn plant response rating", "setting": "corn; [1]", "value": 0},
      {"measurement": "Plant response rating, Corn", "setting": "corn; [2]", "value": 0},
      {"measurement": "Plant response rating, Corn", "setting": "corn; [3]", "value": 0},
      {"measurement": "Plant response rating, S. Flatsedge (0 to 10 scale, 0 is no effect, 10 is complete control)", "setting": "smallflower flatsedge; [5]", "value": 0},
      {"measurement": "S. Flatsedge plant response rating (0 to 10 scale, 0 is no effect, 10 is complete control)", "setting": "smallflower flatsedge; [6]", "value": 0},
      {"measurement": "S. Flatsedge plant response rating", "setting": "smallflower flatsedge; [7]", "value": 0},
      {"measurement": "S. Flatsedge plant response rating", "setting": "smallflower flatsedge; [8]", "value": 0},
      {"measurement": "Giant foxtail plant response rating", "setting": "giant foxtail; Rate 62 g/ha", "value": 10},
      {"measurement": "Plant response rating, Giant foxtail", "setting": "giant foxtail; Rate 125 g/ha", "value": 10},
      {"measurement": "Sugarbeets plant response rating", "setting": "sugar beet; Rate 62 g/ha", "value": 0},
      {"measurement": "Plant response rating, Sugarbeets", "setting": "sugar beet; Rate 125 g/ha", "value": 0},
      {"measurement": "Plant response rating, Ducksalad (0 to 10 scale, 0 is no effect, 10 is complete control)", "setting": "duck salad; [5]", "value": 0},
      {"measurement": "Ducksalad plant response rating (0 to 10 scale, 0 is no effect, 10 is complete control)", "setting": "duck salad; [6]", "value": 0},
      {"measurement": "Ducksalad plant response rating", "setting": "duck salad; [7]", "value": 0},
      {"measurement": "Ducksalad plant response rating", "setting": "duck salad; [8]", "value": 0},
      {"measurement": "Cocklebur plant response rating", "setting": "cocklebur; [1]", "value": 0},
      {"measurement": "Plant response rating, Cocklebur", "setting": "cocklebur; [2]", "value": 0},
      {"measurement": "Plant response rating, Cocklebur", "setting": "cocklebur; [3]", "value": 0},
      {"measurement": "Plant response rating, Cocklebur", "setting": "cocklebur; [4]", "value": 0},
      {"measurement": "Morningglory plant response rating", "setting": "morningglory; Rate 62 g/ha", "value": 0},
      {"measurement": "Plant response rating, Morningglory", "setting": "morningglory; Rate 125 g/ha", "value": 0},
      {"measurement": "Blackgrass plant response rating", "setting": "blackgrass; [1]", "value": 2},
      {"measurement": "Plant response rating, Blackgrass", "setting": "blackgrass; [2]", "value": 2},
      {"measurement": "Plant response rating, Blackgrass", "setting": "blackgrass; [3]", "value": 9},
      {"measurement": "Plant response rating, Blackgrass", "setting": "blackgrass; [4]", "value": 10},
      {"measurement": "Redroot pigweed plant response rating", "setting": "pigweed; Rate 62 g/ha", "value": 2},
      {"measurement": "Plant response rating, Redroot pigweed", "setting": "pigweed; Rate 125 g/ha", "value": 5}
    ]}
  ]
}
